Laboratory results: patent US20190330224A1, “ACC INHIBITORS AND USES THEREOF” (Gilead Apollo, LLC, priority 2015, published 2019)
In brackets after ≈: the same amount, converted by molar mass.

Key:
[1] = target: Human ACC2 (Homo sapiens, UniProt O00763); test: In vitro ACC2 inhibition assay (ADP-Glo), human ACC2; type: biochemical; details: 5 nM ACC2, 20 μM ATP, 20 μM acetyl-CoA
[2] = system: C. albicans ATCC 90028; test: Anti-Fungal Activity Assay (broth microtiter MIC), C. albicans; type: cell-based, Candida albicans; details: 3 replicates, MIC recorded at 48 h; for MIC: Candida albicans, ATCC90028, 48 h, read-out: MIC C. albicans ATCC 90028
Protocol: (§1) Compounds of the present invention were evaluated in an Anti-Fungal Activity Assay. An exemplary procedure for the assay, which measures the susceptibility of various Candida species to anti-fungal compounds, follows. Compounds to be tested (including fluconazole and amphotericin B) were dissolved in DMSO to obtain a solution having a concentration of 1 mg/mL. […] All species were grown from frozen stock by directly plating on to freshly prepared Sabouraud Dextrose agar (BD, Difco) and incubated overnight in ambient air at 35° C. for 24 h. A direct suspension was prepared in RPMI 1640+MOPS (Lonza, Biowhittaker) by taking individual colonies from the overnight cultures using sterile swabs soaked in sterile saline. The concentration of the suspension was determined using pre-determined standard curves. […] Broth microtiter MIC challenge plates were prepared following CLSI guidelines (M27-A3, Vol. 28 No. 14). The original CLSI guidelines focused on reading Candida MICs after 48 h of incubation. As reading after only 24 h offers a clear advantage of patient care, QC limits are being established for all drugs at 24 h. That being said there are no known interpretive breakpoints for amphotericin B at 24 h and the current fluconazole interpretive breakpoints are based on a 48 h reading. The MIC breakpoints for the test compounds were recorded at 48 h, and for the soraphen the 24 h time-point was added. All MIC determinations were achieved by visually comparing the growth found in the antibiotic challenged wells to that of the growth control.

[3] = system: C. krusei ATCC 6258; test: Anti-Fungal Activity Assay (broth microtiter MIC), C. krusei; type: cell-based, Candida krusei; details: 3 replicates, MIC recorded at 48 h; for MIC: Pichia kudriavzevii, ATCC6258, 48 h, read-out: MIC C. krusei ATCC 6258
Protocol: as §1

[4] = system: C. parapsilosis ATCC 22019; test: Anti-Fungal Activity Assay (broth microtiter MIC), C. parapsilosis; type: cell-based, Candida parapsilosis; details: Lodderomyces parapsilosis, ATCC22019, 48 h, 3 replicates; MIC recorded at 48 h; read-out: MIC C. parapsilosis ATCC 22019
Protocol: as §1

Human ACC2, sequence (O00763 whole entry): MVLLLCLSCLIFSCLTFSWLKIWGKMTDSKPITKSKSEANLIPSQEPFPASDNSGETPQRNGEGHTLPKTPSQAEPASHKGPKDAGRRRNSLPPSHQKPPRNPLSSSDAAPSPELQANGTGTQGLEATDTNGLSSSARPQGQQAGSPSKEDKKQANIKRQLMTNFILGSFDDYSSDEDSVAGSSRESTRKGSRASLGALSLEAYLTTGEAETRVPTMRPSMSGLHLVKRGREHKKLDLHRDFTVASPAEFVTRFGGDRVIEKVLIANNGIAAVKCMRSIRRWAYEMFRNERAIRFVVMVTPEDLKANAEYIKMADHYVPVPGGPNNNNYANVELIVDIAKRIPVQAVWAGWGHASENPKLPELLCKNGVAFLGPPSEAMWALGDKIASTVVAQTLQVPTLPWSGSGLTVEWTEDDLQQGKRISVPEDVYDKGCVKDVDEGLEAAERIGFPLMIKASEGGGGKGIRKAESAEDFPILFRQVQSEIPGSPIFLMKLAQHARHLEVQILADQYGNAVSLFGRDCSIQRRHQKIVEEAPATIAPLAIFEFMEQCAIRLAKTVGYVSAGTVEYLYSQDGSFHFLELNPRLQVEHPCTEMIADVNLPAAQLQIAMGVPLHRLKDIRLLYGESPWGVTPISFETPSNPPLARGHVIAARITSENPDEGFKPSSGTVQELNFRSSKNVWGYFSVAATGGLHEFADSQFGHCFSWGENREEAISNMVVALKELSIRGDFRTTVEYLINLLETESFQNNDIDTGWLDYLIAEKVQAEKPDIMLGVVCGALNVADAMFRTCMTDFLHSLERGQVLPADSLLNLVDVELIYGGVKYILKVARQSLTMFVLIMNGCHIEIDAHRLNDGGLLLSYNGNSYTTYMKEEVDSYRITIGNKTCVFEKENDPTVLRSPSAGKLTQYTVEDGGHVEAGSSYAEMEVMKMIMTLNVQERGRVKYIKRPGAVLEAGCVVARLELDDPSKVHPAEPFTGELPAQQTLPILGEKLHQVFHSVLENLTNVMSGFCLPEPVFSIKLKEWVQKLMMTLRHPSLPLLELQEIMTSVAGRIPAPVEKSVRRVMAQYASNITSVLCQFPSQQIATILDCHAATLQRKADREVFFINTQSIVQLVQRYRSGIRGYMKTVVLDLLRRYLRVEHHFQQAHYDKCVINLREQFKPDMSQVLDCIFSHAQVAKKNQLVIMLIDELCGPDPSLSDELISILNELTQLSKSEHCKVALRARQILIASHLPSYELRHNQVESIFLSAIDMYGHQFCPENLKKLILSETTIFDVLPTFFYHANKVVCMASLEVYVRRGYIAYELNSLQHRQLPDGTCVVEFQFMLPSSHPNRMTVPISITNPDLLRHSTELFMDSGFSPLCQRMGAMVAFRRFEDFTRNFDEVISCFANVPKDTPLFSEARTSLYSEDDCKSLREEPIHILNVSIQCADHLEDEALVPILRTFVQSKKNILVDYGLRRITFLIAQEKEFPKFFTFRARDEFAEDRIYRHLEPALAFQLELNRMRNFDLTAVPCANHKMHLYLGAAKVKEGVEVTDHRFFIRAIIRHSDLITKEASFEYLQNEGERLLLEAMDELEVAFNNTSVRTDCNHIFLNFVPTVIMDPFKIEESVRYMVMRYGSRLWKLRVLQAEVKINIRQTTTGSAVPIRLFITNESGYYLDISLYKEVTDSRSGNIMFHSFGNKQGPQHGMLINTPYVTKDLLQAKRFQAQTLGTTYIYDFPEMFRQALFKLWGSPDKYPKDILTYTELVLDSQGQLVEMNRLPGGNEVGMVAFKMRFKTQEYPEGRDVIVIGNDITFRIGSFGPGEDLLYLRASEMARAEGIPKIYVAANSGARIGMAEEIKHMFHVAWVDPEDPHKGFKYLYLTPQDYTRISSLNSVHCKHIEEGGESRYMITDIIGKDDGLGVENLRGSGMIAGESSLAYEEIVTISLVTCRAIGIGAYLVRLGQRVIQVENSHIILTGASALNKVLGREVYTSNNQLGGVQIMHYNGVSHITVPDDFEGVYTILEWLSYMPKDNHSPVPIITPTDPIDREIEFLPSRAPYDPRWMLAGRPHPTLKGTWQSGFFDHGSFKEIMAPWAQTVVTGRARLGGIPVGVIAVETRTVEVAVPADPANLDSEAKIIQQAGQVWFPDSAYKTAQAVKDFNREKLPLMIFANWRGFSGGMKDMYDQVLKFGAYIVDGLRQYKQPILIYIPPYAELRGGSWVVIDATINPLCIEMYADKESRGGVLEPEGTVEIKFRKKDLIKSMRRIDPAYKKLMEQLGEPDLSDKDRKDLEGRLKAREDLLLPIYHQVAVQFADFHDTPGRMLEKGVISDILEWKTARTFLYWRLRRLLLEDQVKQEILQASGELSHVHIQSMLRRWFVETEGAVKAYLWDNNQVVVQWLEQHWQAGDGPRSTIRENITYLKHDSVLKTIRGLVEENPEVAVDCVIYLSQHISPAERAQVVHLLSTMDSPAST

In the case of `COc1ccc(F)cc1[C@H](Cn1c(=O)n(C2CCN(C(C)C)C2=O)c(=O)c2c(C)c(-n3nccn3)sc21)OC1CCOCC1` (stereo in doubt) [Compound I-138, 1-((R)-2-(5-fluoro-2-methoxyphenyl)-2-((tetrahydro-2H-pyran-4-yl)oxy)ethyl)-3-((S)-1-isopropyl-2-oxopyrrolidin-3-yl)-5-methyl-6-(2H-1,2,3-triazol-2-yl)thieno[2,3-d]pyrimidine-2,4(1H,3H)-dione], the IC50 [1] is reported as 0.002 to 0.01 µM, the “MIC C. albicans ATCC 90028” value [2] is reported as “A (provided an MIC of 0.25-1.0 μg/mL)” and the “MIC C. krusei ATCC 6258” value [3] is reported as “A (provided an MIC of 0.25-1.0 μg/mL)”. It also gave an MIC [4] of 2.1 to 4 µg/mL (≈ 3.35 to 6.38 µM).

`CCN1CCC(n2c(=O)c3c(C)c(-n4nccn4)sc3n(C[C@H](OCCOC)c3cc(F)ccc3OC)c2=O)C1=O` (stereo partly drawn) [Compound I-3, 3-(1-ethyl-2-oxopyrrolidin-3-yl)-1-((R)-2-(5-fluoro-2-methoxyphenyl)-2-(2-methoxyethoxy)ethyl)-5-methyl-6-(2H-1,2,3-triazol-2-yl)thieno[2,3-d]pyrimidine-2,4(1H,3H)-dione] showed an IC50 [1] of 0.01 to 0.1 µM, an MIC [2] of 2.1 to 4 µg/mL (≈ 3.58 to 6.82 µM) and an MIC [3] of 2.1 to 4 µg/mL (≈ 3.58 to 6.82 µM). It also gave an MIC [4] of 2.1 to 4 µg/mL (≈ 3.58 to 6.82 µM).

Compound `COc1ccc(F)cc1[C@H](Cn1c(=O)n(C2CCN(C)C2=O)c(=O)c2c(C)c(-n3nccn3)sc21)OCCO` (stereo partly drawn) [Compound I-6, 1-((R)-2-(5-fluoro-2-methoxyphenyl)-2-(2-hydroxy-ethoxy)ethyl)-5-methyl-3-(-methyl-2-oxopyrrolidin-3-yl)-6-(2H-1,2,3-triazol-2-yl)thieno[2,3-d]pyrimidine-2,4(1H,3H)-dione] has an IC50 [1] of 0.01 to 0.1 µM, an MIC [2] of 2.1 to 4 µg/mL (≈ 3.76 to 7.16 µM) and an MIC [3] of 2.1 to 4 µg/mL (≈ 3.76 to 7.16 µM). It also gave an MIC [4] of 2.1 to 4 µg/mL (≈ 3.76 to 7.16 µM).

With `CCN1CCC(n2c(=O)c3c(C)c(-n4nccn4)sc3n(C[C@H](OCCO)c3cc(F)ccc3OC)c2=O)C1=O` (stereo partly drawn) [Compound I-7, 3-(1-ethyl-2-oxopyrrolidin-3-yl)-1-((R)-2-(5-fluoro-2-methoxyphenyl)-2-(2-hydroxyethoxy)ethyl)-5-methyl-6-(2H-1,2,3-triazol-2-yl)thieno[2,3-d]pyrimidine-2,4(1H,3H)-dione] the IC50 [1] was 0.01 to 0.1 µM, the MIC [2] was 2.1 to 4 µg/mL (≈ 3.67 to 6.99 µM) and the MIC [3] was 1.1 to 2 µg/mL (≈ 1.92 to 3.49 µM). The MIC [4] was 2.1 to 4 µg/mL (≈ 3.67 to 6.99 µM).

`COc1ccc(F)cc1[C@H](Cn1c(=O)n(C2CCN(C(C)C)C2=O)c(=O)c2c(C)c(-n3nccn3)sc21)OCCO` (stereo partly drawn) [Compound I-8, 1-((R)-2-(5-fluoro-2-methoxyphenyl)-2-(2-hydroxyethoxy)ethyl)-3-(1-isopropyl-2-oxopyrrolidin-3-yl)-5-methyl-6-(2H-1,2,3-triazol-2-yl)thieno[2,3-d]pyrimidine-2,4(1H,3H)-dione] gave an IC50 [1] of 0.002 to 0.01 µM.

With `COc1ccc(F)cc1[C@H](Cn1c(=O)n(C2CCNC2=O)c(=O)c2c(C)c(-n3nccn3)sc21)OC1CCOCC1` (stereo partly drawn) [Compound I-9, 1-((R)-2-(5-fluoro-2-methoxyphenyl)-2-((tetrahydro-2H-pyran-4-yl)oxy)ethyl)-5-methyl-3-(2-oxopyrrolidin-3-yl)-6-(22H-1,2,3-triazol-2-yl)thieno[2,3-d]pyrimidine-2,4(1H,3H)-dione] the IC50 [1] was 0.002 to 0.01 µM.

`COc1ccc(F)cc1[C@H](Cn1c(=O)n(C2CCCNC2=O)c(=O)c2c(C)c(-n3nccn3)sc21)OCCO` (stereo partly drawn) [Compound I-17, 1-((R)-2-(5-fluoro-2-methoxyphenyl)-2-(2-hydroxy-ethoxy)ethyl)-5-methyl-3-(2-oxopiperidin-3-yl)-6-(2H-1,2,3-triazol-2-yl)thieno[2,3-d]pyrimidine-2,4(1H,3H)-dione] gave an IC50 [1] of 0.002 to 0.01 µM, an MIC [2] of 2.1 to 4 µg/mL (≈ 3.76 to 7.16 µM) and an MIC [3] of 2.1 to 4 µg/mL (≈ 3.76 to 7.16 µM). The MIC [4] was 2.1 to 4 µg/mL (≈ 3.76 to 7.16 µM).

`CCN1CCCC(n2c(=O)c3c(C)c(-n4nccn4)sc3n(C[C@H](OCCO)c3cc(F)ccc3OC)c2=O)C1=O` (stereo partly drawn) [Compound I-19, 3-(1-ethyl-2-oxopiperidin-3-yl)-1-((R)-2-(5-fluoro-2-methoxyphenyl)-2-(2-hydroxyethoxy)ethyl)-5-methyl-6-(2H-1,2,3-triazol-2-yl)thieno[2,3-d]pyrimidine-2,4(1H,3H)-dione] was tested, and the IC50 [1] was 0.01 to 0.1 µM, the MIC [2] was 2.1 to 4 µg/mL (≈ 3.58 to 6.82 µM) and the MIC [3] was 2.1 to 4 µg/mL (≈ 3.58 to 6.82 µM). It also gave an MIC [4] of 2.1 to 4 µg/mL (≈ 3.58 to 6.82 µM).

`COc1ccc(F)cc1[C@H](Cn1c(=O)n(C2CCCN(C(C)C)C2=O)c(=O)c2c(C)c(-n3nccn3)sc21)OCCO` (stereo partly drawn) [Compound I-20, 1-((R)-2-(5-fluoro-2-methoxyphenyl)-2-(2-hydroxy-ethoxy)ethyl)-3-(1-isopropyl-2-oxopiperidin-3-yl)-5-methyl-6-(2H-1,2,3-triazol-2-yl)thieno[2,3-d]pyrimidine-2,4(1H,3H)-dione] gave an IC50 [1] of 0.01 to 0.1 µM, an MIC [2] of 2.1 to 4 µg/mL (≈ 3.5 to 6.66 µM) and an MIC [3] of 2.1 to 4 µg/mL (≈ 3.5 to 6.66 µM). For the same compound, the MIC [4] was 2.1 to 4 µg/mL (≈ 3.5 to 6.66 µM).

`COc1ccc(F)cc1[C@H](Cn1c(=O)n([C@H]2CCCN(C(C)C)C2=O)c(=O)c2c(C)c(-n3nccn3)sc21)OC1CCOCC1` [Compound I-76, 1-((R)-2-(5-fluoro-2-methoxyphenyl)-2-((tetrahydro-2H-pyran-4-yl)oxy)ethyl)-3-((S)-1-isopropyl-2-oxopiperidin-3-yl)-5-methyl-6-(2H-1,2,3-triazol-2-yl)thieno[2,3-d]pyrimidine-2,4(1H,3H)-dione] showed an IC50 [1] of 0.01 to 0.1 µM.

`COc1ccc(F)cc1[C@H](Cn1c(=O)n([C@@H]2CCCN(C(C)C)C2=O)c(=O)c2c(C)c(-n3nccn3)sc21)OC1CCOCC1` [Compound I-77, 1-((R)-2-(5-fluoro-2-methoxyphenyl)-2-((tetrahydro-2H-pyran-4-yl)oxy)ethyl)-3-((R)-1-isopropyl-2-oxopiperidin-3-yl)-5-methyl-6-(2H-1,2,3-triazol-2-yl)thieno[2,3-d]pyrimidine-2,4(1H,3H)-dione] gave an IC50 [1] of 0.002 to 0.01 µM.

In the case of `COc1ccc(F)cc1[C@H](Cn1c(=O)n([C@]2(C)CCNC2=O)c(=O)c2c(C)c(-n3nccn3)sc21)OCCO` [Compound I-144, 1-((R)-2-(5-fluoro-2-methoxyphenyl)-2-(2-hydroxyethoxy)ethyl)-5-methyl-3-((R)-3-methyl-2-oxopyrrolidin-3-yl)-6-(2H-1,2,3-triazol-2-yl)thieno[2,3-d]pyrimidine-2,4(1H,3H)-dione], the IC50 [1] is reported as greater than 1 µM.

Compound `COc1ccc(F)cc1[C@H](Cn1c(=O)n([C@@]2(C)CCNC2=O)c(=O)c2c(C)c(-n3nccn3)sc21)OCCO` [Compound I-145, 1-((R)-2-(5-fluoro-2-methoxyphenyl)-2-(2-hydroxy-ethoxy)ethyl)-5-methyl-3-((S)-3-methyl-2-oxopyrrolidin-3-yl)-6-(2H-1,2,3-triazol-2-yl)thieno[2,3-d]pyrimidine-2,4(1H,3H)-dione] has an IC50 [1] greater than 1 µM.

In the case of `COc1ccc(F)cc1[C@H](Cn1c(=O)n([C@]2(C)CCN(C)C2=O)c(=O)c2c(C)c(-n3nccn3)sc21)OCCO` [Compound I-147, 3-((R)-1,3-dimethyl-2-oxopyrrolidin-3-yl)-1-((R)-2-(5-fluoro-2-methoxyphenyl)-2-(2-hydroxyethoxy)ethyl)-5-methyl-6-(2H-1,2,3-triazol-2-yl)thieno[2,3-d]pyrimidine-2,4(1H,3H)-dione], the IC50 [1] is reported as greater than 1 µM.

In the case of `COc1ccc(F)cc1[C@H](Cn1c(=O)n([C@@]2(C)CCN(C)C2=O)c(=O)c2c(C)c(-n3nccn3)sc21)OCCO` [Compound I-149, 3-((S)-1,3-dimethyl-2-oxopyrrolidin-3-yl)-1-((R)-2-(5-fluoro-2-methoxyphenyl)-2-(2-hydroxyethoxy)ethyl)-5-methyl-6-(2H-1,2,3-triazol-2-yl)thieno[2,3-d]pyrimidine-2,4(1H,3H)-dione], the IC50 [1] is reported as greater than 1 µM.
